Measured values published in patent US7015215B2, “Pyrrolo[2,1-c][1,4] benzodiazepines compounds and process thereof” (Council of Scientific and Industrial Research, priority 2003, dated 2006).

Legend:
[1] = test system: HOP-92; test: NCI SRB cytotoxicity, Non-small-cell lung HOP-92; assay type: cell-based, human; conditions: HOP-92, Non-small-cell lung, 48 h
Description: (§1) Biological Activity: In vitro biological activity studies were carried out at National Cancer Institute (U.S.A.).
(§2) For each compound, dose response curves for each cell line were measured at a minimum of five concentrations at 10 fold dilutions. A protocol of 48 h continuous drug exposure was used, and a sulforhodamine B (SRB) protein assay was used to estimate cell viability or growth. The concentration causing 50% cell growth inhibition (GI50), total cell growth inhibition (TGI, 0% growth) and 50% cell death (LC50, −50% growth) compared with the control was calculated.

[2] = test system: TK-10; test: NCI SRB cytotoxicity, Renal TK-10; assay type: cell-based, human; conditions: TK-10, Renal, 48 h
Description: as §1, §2

[3] = test system: K-62; test: NCI SRB cytotoxicity, Leukemia K-62; assay type: cell-based, human; conditions: K-62, Leukemia, 48 h
Description: as §1, §2

[4] = test system: MOLT-4; test: NCI SRB cytotoxicity, Leukemia MOLT-4; assay type: cell-based, human; conditions: MOLT-4, Leukemia, 48 h
Description: as §1, §2

[5] = test system: A498; test: NCI SRB cytotoxicity, Renal A498; assay type: cell-based, human; conditions: 48 h
Description: as §1, §2

[6] = test system: SK-MEL-2; test: NCI SRB cytotoxicity, Melanoma SK-MEL-2; assay type: cell-based, human; conditions: SK-MEL-2, Melanoma, 48 h
Description: as §1, §2

[7] = test system: KM-12; test: NCI SRB cytotoxicity, Colon KM-12; assay type: cell-based, human; conditions: KM-12, Colon, 48 h
Description: as §1, §2

[8] = test system: DU-145; test: NCI SRB cytotoxicity, Prostate DU-145; assay type: cell-based, human; conditions: DU-145, Prostate, 48 h
Description: as §2

[9] = test system: SF-268; test: NCI SRB cytotoxicity, CNS SF-268; assay type: cell-based, human; conditions: SF-268, CNS, 48 h
Description: as §1, §2

[10] = test system: RXF 393; test: NCI SRB cytotoxicity, Renal RXF 393; assay type: cell-based, human; conditions: RXF 393, Renal, 48 h
Description: as §2

[11] = test system: IGROVI; test: NCI SRB cytotoxicity, Ovarian IGROVI; assay type: cell-based, human; conditions: 48 h
[12] = test system: OVCAR-5; test: NCI SRB cytotoxicity, Ovarian OVCAR-5; assay type: cell-based, human; conditions: OVCAR-5, Ovarian, 48 h
Description: as §1, §2

[13] = test system: SK-MEL-28; test: NCI SRB cytotoxicity, Melanoma SK-MEL-28; assay type: cell-based, human; conditions: SK-MEL-28, Melanoma, 48 h
Description: as §1, §2

[14] = test system: NCI-H226; test: NCI SRB cytotoxicity, Non-small-cell lung NCI-H226; assay type: cell-based, human; conditions: 48 h
Description: as §1, §2

[15] = test system: HL-60(TB); conditions: Leukemia, 48 h, SRB
Description: as §1, §2

[16] = test system: NCI-H322; test: NCI SRB cytotoxicity, Non-small-cell lung NCI-H322; assay type: cell-based, human; conditions: 48 h
Description: as §1, §2

[17] = test system: A549/ATCC; test: NCI SRB cytotoxicity, Non-small-cell lung A549/ATCC; assay type: cell-based, human; conditions: 48 h
Description: as §1, §2

[18] = test system: SNB-75; test: NCI SRB cytotoxicity, CNS SNB-75; assay type: cell-based, human; conditions: SNB-75, CNS, 48 h
Description: as §1, §2

[19] = test system: HCT-116; test: NCI SRB cytotoxicity, Colon HCT-116; assay type: cell-based, human; conditions: HCT-116, Colon, 48 h
Description: as §1, §2

[20] = test system: BT-549; test: NCI SRB cytotoxicity, Breast BT-549; assay type: cell-based, human; conditions: BT-549, Breast, 48 h
Description: as §1, §2

[21] = test system: human tumor cell lines; test: NCI in vitro cytotoxicity SRB assay, mean graph midpoints over the panel; assay type: cell-based; conditions: 48 h continuous exposure
Description: as §1, §2

[22] = test system: MCF7; test: NCI SRB cytotoxicity, Breast MCF7; assay type: cell-based, human; conditions: 48 h
Description: as §1, §2

[23] = test system: EKVX; test: NCI SRB cytotoxicity, Non-small-cell lung EKVX; assay type: cell-based, human; conditions: 48 h
Description: as §1, §2

[24] = test system: UACC-257; test: NCI SRB cytotoxicity, Melanoma UACC-257; assay type: cell-based, human; conditions: UACC-257, Melanoma, 48 h
Description: as §1, §2

[25] = test system: PC-3; test: NCI SRB cytotoxicity, Prostate PC-3; assay type: cell-based, human; conditions: PC-3, Prostate, 48 h
Description: as §2

[26] = test system: UO-31; test: NCI SRB cytotoxicity, Renal UO-31; assay type: cell-based, human; conditions: UO-31, Renal, 48 h
Description: as §2

[27] = test system: NCI-H23; test: NCI SRB cytotoxicity, Non-small-cell lung NCI-H23; assay type: cell-based, human; conditions: 48 h
Description: as §1, §2

[28] = test system: RPMI-8226; test: NCI SRB cytotoxicity, Leukemia RPMI-8226; assay type: cell-based, human; conditions: RPMI-8226, Leukemia, 48 h
Description: as §2

[29] = test system: OVCAR-3; test: NCI SRB cytotoxicity, Ovarian OVCAR-3; assay type: cell-based, human; conditions: OVCAR-3, Ovarian, 48 h
Description: as §1, §2

[30] = test system: HS578T; test: NCI SRB cytotoxicity, Breast HS578T; assay type: cell-based, human; conditions: 48 h
Description: as §1, §2

[31] = test system: SN12C; test: NCI SRB cytotoxicity, Renal SN12C; assay type: cell-based, human; conditions: 48 h
Description: as §1, §2

[32] = test system: M14; test: NCI SRB cytotoxicity, Melanoma M14; assay type: cell-based, human; conditions: 48 h
Description: as §1, §2

[33] = test system: MDA-MB-435; test: NCI SRB cytotoxicity, Breast MDA-MB-435; assay type: cell-based, human; conditions: MDA-MB-435, Breast, 48 h
Description: as §1, §2

[34] = test system: 786-0; test: NCI SRB cytotoxicity, Renal 786-0; assay type: cell-based, human; conditions: 786-0, Renal, 48 h
Description: as §1, §2

[35] = test system: UACC-62; test: NCI SRB cytotoxicity, Melanoma UACC-62; assay type: cell-based, human; conditions: UACC-62, Melanoma, 48 h
Description: as §1, §2

[36] = test system: SK-MEL-5; test: NCI SRB cytotoxicity, Melanoma SK-MEL-5; assay type: cell-based, human; conditions: SK-MEL-5, Melanoma, 48 h
Description: as §1, §2

[37] = test system: SW-620; test: NCI SRB cytotoxicity, Colon SW-620; assay type: cell-based, human; conditions: SW-620, Colon, 48 h
Description: as §1, §2

COc1cc2c(cc1OCCCCN1CCN(CCCCOc3cc4c(cc3OC)C(=O)N3CCC[C@H]3C=N4)CC1)N=C[C@@H]1CCCN1C2=O [Compound VIc, 1,1′-{[(bisbutane-1,N-diyl)piperazine]dioxy}bis[(11aS)-7-methoxy-1,2,3,11a-tetrahydro-5H-pyrrolo[2,1-c][1,4]benzodiazepin-5-one]]
Log LC 50 [1]: −4.00 mol/L
Log GI 50 [2]: −7.69 mol/L
Log LC 50 [2]: −4.00 mol/L
Log GI 50 [3]: −7.63 mol/L
Log LC 50 [3]: −4.00 mol/L
Log LC 50 [4]: −4.00 mol/L
Log GI 50 [5]: −6.89 mol/L
Log GI 50 [6]: −7.34 mol/L
Log LC 50 [6]: −4.00 mol/L
Log GI 50 [7]: −7.84 mol/L
Log LC 50 [7]: −4.67 mol/L
Log GI 50 [8]: −7.60 mol/L
Log LC 50 [8]: −4.00 mol/L
Log LC 50 [9]: −4.00 mol/L
Log GI 50 [10]: −7.54 mol/L
Log LC 50 [10]: −4.00 mol/L
Log GI 50 [11]: −6.79 mol/L
Log LC 50 [11]: −4.00 mol/L
Log GI 50 [12]: −7.92 mol/L
Log LC 50 [12]: −4.00 mol/L
Log GI 50 [13]: −7.69 mol/L
Log LC 50 [13]: −4.00 mol/L
Log LC 50 [14]: −4.00 mol/L
Log LC 50 [15]: −4.00 mol/L
Log GI 50 [16]: −7.59 mol/L
Log LC 50 [16]: −4.00 mol/L
Log GI 50 [17]: −7.23 mol/L
Log LC 50 [17]: −4.00 mol/L
Log GI 50 [18]: −7.94 mol/L
Log LC 50 [18]: −4.00 mol/L
Log GI 50 [19]: −6.42 mol/L
Log LC 50 [19]: −4.00 mol/L
Log GI 50 [20]: −7.68 mol/L
Log LC 50 [20]: −4.00 mol/L
Log10 GI50 mean graph midpoint (MG_MID) [21]: −7.70
Log10 LC50 mean graph midpoint (MG_MID) [21]: −4.47
Log10 TGI mean graph midpoint (MG_MID) [21]: −5.95
Log LC 50 [22]: −4.00 mol/L
Log GI 50 [23]: −6.36 mol/L
Log LC 50 [23]: −4.00 mol/L
Log GI 50 [24]: −7.65 mol/L
Log GI 50 [25]: −7.02 mol/L
Log LC 50 [25]: −4.00 mol/L
Log GI 50 [26]: −6.65 mol/L
Log LC 50 [26]: −4.00 mol/L
Log LC 50 [27]: −5.59 mol/L
Log GI 50 [28]: −7.81 mol/L
Log LC 50 [28]: −4.60 mol/L
Log GI 50 [29]: −7.91 mol/L
Log LC 50 [29]: −4.00 mol/L
Log GI 50 [30]: −7.30 mol/L
Log LC 50 [30]: −4.00 mol/L
Log LC 50 [31]: −4.00 mol/L
Log GI 50 [32]: −7.60 mol/L
Log LC 50 [32]: −4.17 mol/L
Log GI 50 [33]: −7.87 mol/L
Log LC 50 [33]: −7.15 mol/L
Log LC 50 [34]: −4.00 mol/L
Log LC 50 [35]: −7.35 mol/L
Log GI 50 [36]: −7.86 mol/L
Log LC 50 [36]: −6.68 mol/L

COc1cc2c(cc1OCCCCCN1CCN(CCCCCOc3cc4c(cc3OC)C(=O)N3CCC[C@H]3C=N4)CC1)N=C[C@@H]1CCCN1C2=O [Compound VId]
Log GI 50 [1]: −5.46 mol/L
Log LC 50 [1]: −4.00 mol/L
Log LC 50 [2]: −4.00 mol/L
Log GI 50 [3]: −5.46 mol/L
Log LC 50 [3]: −4.20 mol/L
Log GI 50 [4]: −4.79 mol/L
Log LC 50 [4]: −4.00 mol/L
Log GI 50 [5]: −5.00 mol/L
Log LC 50 [5]: −4.00 mol/L
Log GI 50 [7]: −5.25 mol/L
Log LC 50 [7]: −4.00 mol/L
Log GI 50 [8]: −5.37 mol/L
Log LC 50 [8]: −4.00 mol/L
Log GI 50 [9]: −5.44 mol/L
Log GI 50 [10]: −8.00 mol/L
Log LC 50 [10]: −5.09 mol/L
Log GI 50 [11]: −5.13 mol/L
Log LC 50 [11]: −4.00 mol/L
Log GI 50 [12]: −5.33 mol/L
Log LC 50 [12]: −4.00 mol/L
Log GI 50 [13]: −4.71 mol/L
Log LC 50 [13]: −4.00 mol/L
Log GI 50 [14]: −5.30 mol/L
Log LC 50 [14]: −4.00 mol/L
Log GI 50 [15]: −5.38 mol/L
Log LC 50 [15]: −4.00 mol/L
Log GI 50 [16]: −4.65 mol/L
Log LC 50 [16]: −4.00 mol/L
Log GI 50 [17]: −4.66 mol/L
Log LC 50 [17]: −4.00 mol/L
Log GI 50 [18]: −4.51 mol/L
Log LC 50 [18]: −4.00 mol/L
Log GI 50 [19]: −4.00 mol/L
Log LC 50 [19]: −4.00 mol/L
Log GI 50 [20]: −5.31 mol/L
Log LC 50 [20]: −4.00 mol/L
Log GI 50 [37]: −5.49 mol/L
Log LC 50 [37]: −4.00 mol/L
Log10 GI50 mean graph midpoint (MG_MID) [21]: −5.14
Log10 LC50 mean graph midpoint (MG_MID) [21]: −4.04
Log10 TGI mean graph midpoint (MG_MID) [21]: −4.26
Log GI 50 [22]: −5.69 mol/L
Log LC 50 [22]: −4.00 mol/L
Log GI 50 [23]: −4.33 mol/L
Log LC 50 [23]: −4.00 mol/L
Log GI 50 [24]: −4.75 mol/L
Log LC 50 [24]: −4.00 mol/L
Log GI 50 [25]: −5.41 mol/L
Log LC 50 [25]: −4.00 mol/L
Log GI 50 [26]: −4.00 mol/L
Log LC 50 [26]: −4.00 mol/L
Log GI 50 [27]: −5.18 mol/L
Log LC 50 [27]: −4.00 mol/L
Log GI 50 [28]: −5.59 mol/L
Log LC 50 [28]: −4.54 mol/L
Log GI 50 [29]: −5.32 mol/L
Log LC 50 [29]: −4.00 mol/L
Log GI 50 [30]: −5.12 mol/L
Log LC 50 [30]: −4.00 mol/L
Log GI 50 [31]: −5.66 mol/L
Log LC 50 [31]: −4.00 mol/L
Log GI 50 [32]: −4.76 mol/L
Log GI 50 [33]: −5.37 mol/L
Log LC 50 [33]: −4.00 mol/L
Log GI 50 [34]: −5.61 mol/L
Log LC 50 [34]: −4.00 mol/L
Log GI 50 [35]: −5.64 mol/L
Log LC 50 [35]: −4.00 mol/L
Log GI 50 [36]: −5.48 mol/L
Log LC 50 [36]: −4.00 mol/L
